Source: ChEMBL document CHEMBL1201862, “PubChem BioAssay data set” (2004)
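Following 48 hours of exposure in 96-well plates, responses at five concentrations were used to interpolate endpoints linearly. GI50 marks 50% less growth.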 Activity calls are given as the source filed them. No stated cut-off is given here; in the data, active = GI50 up to about 1.1 µM and inactive = higher.

Experiments:
Assay in all cases: NCI-60 cell line screen, 48 h
[1] = test system: CAKI-1
[2] = test system: HCC 2998
[3] = test system: SK-MEL-5
[4] = test system: BT-549
[5] = test system: MDA-MB-231
[6] = test system: SR
[7] = test system: HCT-15
[8] = test system: COLO 205
[9] = test system: A498
[10] = test system: OVCAR-4
[11] = test system: SW-620
[12] = test system: HL-60
[13] = test system: DU-145
[14] = test system: SK-OV-3
[15] = test system: MDA-N
[16] = test system: MDA-MB-435
[17] = test system: A549
[18] = test system: OVCAR-8
[19] = test system: SF-268
[20] = test system: MOLT-4

SMILES | GI50 [1] | GI50 [2] | GI50 [3] | GI50 [4] | GI50 [5] | GI50 [6] | GI50 [7] [µM] | GI50 [8] | GI50 [9] | GI50 [10] | GI50 [11] | GI50 [12] | GI50 [13] | GI50 [14] | GI50 [15] | GI50 [16] | GI50 [17] | GI50 [18] | GI50 [19] | GI50 [20]
CC(=O)NC1C(OCc2ccccc2)OC(CO)C(O)C1OCC(=O)N[C@@H](C)C(=O)N[C@H](CCC(=O)NCCNCCNc1c2ccccc2nc2cccc([N+](=O)[O-])c12)C(N)=O (some centres not stated) | 22.6 µM (inactive) | 6.52 µM (inactive) | 17.8 µM (inactive) | > 10 µM (inactive) | 34.8 µM (inactive) | 18.1 µM (inactive) | 22.6 | 25 µM (inactive) | 19.8 µM (inactive) | 17.3 µM (inactive) | 39.1 µM (inactive) | 26.2 µM (inactive) | 36.6 µM (inactive) | 78.5 µM (inactive) | 33.1 µM (inactive) | 29.6 µM (inactive) | 35.4 µM (inactive) | 27.4 µM (inactive) |  | 
COc1c2ccsc2c(OC)c2ccsc12 | 0.478 µM (active) | > 100 µM (inactive) | > 100 µM (inactive) | > 100 µM (inactive) | > 100 µM (inactive) | > 100 µM (inactive) | > 100 | > 100 µM (inactive) | > 100 µM (inactive) | > 100 µM (inactive) | > 100 µM (inactive) | > 100 µM (inactive) | > 100 µM (inactive) | > 100 µM (inactive) | > 100 µM (inactive) | > 100 µM (inactive) | > 100 µM (inactive) | > 100 µM (inactive) | > 100 µM (inactive) | > 100 µM (inactive)
N=C(N)NS(=O)(=O)c1ccc(NNc2c3ccccc3nc3c(C(=O)Nc4ccc(S(N)(=O)=O)cc4)cccc23)cc1 | > 100 µM (inactive) | 19.5 µM (inactive) | 27.3 µM (inactive) | 19.5 µM (inactive) | 27.9 µM (inactive) | 5.37 µM (inactive) | > 100 | 31 µM (inactive) | > 100 µM (inactive) | 51.2 µM (inactive) | 22.1 µM (inactive) | 23.9 µM (inactive) | 94 µM (inactive) | > 100 µM (inactive) | 76.6 µM (inactive) | 72.8 µM (inactive) | > 100 µM (inactive) | 36.1 µM (inactive) | 16.8 µM (inactive) | 5.75 µM (inactive)
O/N=N/c1cnccn1 | 975 µM (inactive) | > 1250 µM (inactive) | > 1250 µM (inactive) | > 979 µM (inactive) | > 1250 µM (inactive) | > 180 µM (inactive) | > 1080 | > 1220 µM (inactive) | > 1250 µM (inactive) | > 438 µM (inactive) | > 1250 µM (inactive) | 322 µM (inactive) | 1090 µM (inactive) | > 269 µM (inactive) | > 1250 µM (inactive) | > 1250 µM (inactive) | > 1250 µM (inactive) | 1200 µM (inactive) | > 1250 µM (inactive) | 196 µM (inactive)
N#Cc1c(O)nc2nn3c4ccc5ccccc5c4nnc3c2c1-c1ccc(Cl)cc1 | 2.29 µM (inactive) | 2.68 µM (inactive) | 1.92 µM (inactive) | 0.174 µM (active) | 5.36 µM (inactive) | 0.675 µM (active) | 1.89 | 2.24 µM (inactive) | 1.58 µM (inactive) | 3.58 µM (inactive) | 2.03 µM (inactive) | 0.421 µM (active) | 1.95 µM (inactive) | 3.3 µM (inactive) | 2.52 µM (inactive) | 3.3 µM (inactive) | 4.57 µM (inactive) | 2.27 µM (inactive) | 2.51 µM (inactive) | 2.4 µM (inactive)
O=C(/C=C1\Nc2ccccc2N\C1=C/C(=O)c1ccc(F)cc1)c1ccc(F)cc1 | > 100 µM (inactive) | 63.2 µM (inactive) | > 100 µM (inactive) | > 100 µM (inactive) | > 100 µM (inactive) | 54.3 µM (inactive) | > 100 | > 100 µM (inactive) | > 100 µM (inactive) | > 100 µM (inactive) | > 100 µM (inactive) | 46.5 µM (inactive) | > 100 µM (inactive) |  | > 100 µM (inactive) | > 100 µM (inactive) | > 100 µM (inactive) | > 100 µM (inactive) | > 100 µM (inactive) | > 100 µM (inactive)
O=C(O)c1c2c(cc3c1CC(Cc1ccccc1)C3=O)CCC2 (configuration not stated) | > 100 µM (inactive) | > 100 µM (inactive) | > 100 µM (inactive) | > 100 µM (inactive) | 30.5 µM (inactive) | 67.5 µM (inactive) | 41.7 | > 100 µM (inactive) | > 100 µM (inactive) | > 100 µM (inactive) | > 100 µM (inactive) | 22.4 µM (inactive) | > 100 µM (inactive) | > 100 µM (inactive) | > 100 µM (inactive) | > 100 µM (inactive) | 19.5 µM (inactive) | > 100 µM (inactive) | > 100 µM (inactive) | 96.8 µM (inactive)
Nc1ccccc1.O=P(O)(O)c1ccccc1 | > 100 µM (inactive) | > 100 µM (inactive) | > 100 µM (inactive) | > 100 µM (inactive) | > 100 µM (inactive) | > 100 µM (inactive) | > 100 | > 100 µM (inactive) | > 100 µM (inactive) | > 100 µM (inactive) | > 100 µM (inactive) | > 100 µM (inactive) | > 100 µM (inactive) | > 100 µM (inactive) | > 100 µM (inactive) | > 100 µM (inactive) | > 100 µM (inactive) | > 100 µM (inactive) | > 100 µM (inactive) | 
CCCC(=O)Nc1cn(COC)c(C(=O)N2C[C@H]3C[C@@]34C2=CC(=O)c2[nH]cc(C)c24)n1 | 2.72 µM (inactive) | 2.89 µM (inactive) | 4.06 µM (inactive) | 9.2 µM (inactive) | 13.1 µM (inactive) | 2.2 µM (inactive) | 11.9 | 7.78 µM (inactive) | 8.63 µM (inactive) | 9.12 µM (inactive) | 3.66 µM (inactive) | 0.728 µM (active) | 1.38 µM (inactive) | 16.7 µM (inactive) | 9.16 µM (inactive) | 6.81 µM (inactive) | 12.2 µM (inactive) | 2.69 µM (inactive) | 5.12 µM (inactive) | 0.553 µM (active)
NC(=O)NC(=O)c1ccc(NC(=O)CBr)cc1 | 0.679 µM (active) | 12.8 µM (inactive) | 1.62 µM (inactive) | 2.1 µM (inactive) | 2.49 µM (inactive) | 0.333 µM (active) | 1.8 | 1.48 µM (inactive) | 14.3 µM (inactive) | 1.66 µM (inactive) | 0.344 µM (active) | 1.54 µM (inactive) | 2.44 µM (inactive) | 3.27 µM (inactive) | 2.07 µM (inactive) | 1.53 µM (inactive) | 14.1 µM (inactive) | 2.26 µM (inactive) | 1.4 µM (inactive) | 0.241 µM (active)
CCOC(=O)c1cc2cc3c4c(c2oc1=O)CCCN4CCC3 | 47.3 µM (inactive) | 78.9 µM (inactive) | 13.4 µM (inactive) | 31.4 µM (inactive) | 22.3 µM (inactive) | 22.8 µM (inactive) | 25.2 | 24.7 µM (inactive) | 17.6 µM (inactive) | 34 µM (inactive) | 67.9 µM (inactive) | 16.9 µM (inactive) | 31.6 µM (inactive) |  | 37.2 µM (inactive) | 28.3 µM (inactive) | 21.5 µM (inactive) | 22.1 µM (inactive) | 19.2 µM (inactive) | 25.8 µM (inactive)
O=C(N/N=C/c1ccc([N+](=O)[O-])o1)c1ccc(C(=O)N/N=C/c2ccc([N+](=O)[O-])o2)cc1 | 35.4 µM (inactive) |  | 22.6 µM (inactive) | > 100 µM (inactive) | > 100 µM (inactive) | 29.8 µM (inactive) | 29.8 | 28.1 µM (inactive) | 8.87 µM (inactive) | 45 µM (inactive) | 22.4 µM (inactive) | 21.7 µM (inactive) | 64.4 µM (inactive) | > 100 µM (inactive) | 20.7 µM (inactive) | 16.2 µM (inactive) | 45.5 µM (inactive) | 28.4 µM (inactive) | 64.7 µM (inactive) | 23.8 µM (inactive)
C=C1CCC2CC1[C@@H](C(=O)c1c[nH]c3ccccc13)NC2(C)C (some centres not stated) | 8.51 µM (inactive) | 10.7 µM (inactive) | > 37.5 µM (inactive) | > 37.5 µM (inactive) | > 37.5 µM (inactive) | 33 µM (inactive) | > 37.5 | 35 µM (inactive) | > 37.5 µM (inactive) | > 37.5 µM (inactive) | > 37.5 µM (inactive) | 34.8 µM (inactive) | > 37.5 µM (inactive) |  | > 37.5 µM (inactive) | > 37.5 µM (inactive) | > 37.5 µM (inactive) | > 37.5 µM (inactive) | > 37.5 µM (inactive) | > 37.5 µM (inactive)
NCC1OC(n2cnc3c(N)ncnc32)CC1O (configuration not stated) | > 100 µM (inactive) |  | > 100 µM (inactive) | > 100 µM (inactive) | > 100 µM (inactive) | > 100 µM (inactive) | > 100 | > 100 µM (inactive) | > 100 µM (inactive) | > 100 µM (inactive) | > 100 µM (inactive) | > 100 µM (inactive) | > 100 µM (inactive) | > 100 µM (inactive) | > 100 µM (inactive) | > 100 µM (inactive) | > 100 µM (inactive) | > 100 µM (inactive) | > 100 µM (inactive) | > 100 µM (inactive)
